{"source": "paper PMC3203620", "about": "(The Journal of Organic Chemistry, 2011)", "origin": "cited, not measured here", "key": {"Mt": {"system": "Mt", "settings": "due to poor uptake"}, "[1]": {"system": "Plasmodium falciparum DXR"}}, "data": [{"smiles": "O=CN(O)CCCP(=O)(O)O", "note": "[Compound 1, fosmidomycin]", "values": [{"measurement": "activity on Mt at the whole cell level", "setting": "Mt", "value": "inactive"}, {"measurement": "pharmacokinetic properties", "value": "poor pharmacokinetic properties"}, {"measurement": "inhibition of Plasmodium falciparum DXR in vitro", "setting": "[1]", "value": "potent inhibitor"}, {"measurement": "activity in vivo in P. vinckei infected mice", "setting": "P. vinckei", "value": "potent inhibitor"}]}]}
